Measured values published in the METLIN SMRT retention time set (Domingo-Almenara et al. 2019).

Test: gradient 5% acetonitrile 3 min, to 50% in 2 min, to 85% in 15 min, held 3 min, 100 µL/min
Details: column: Zorbax Extend-C18 2.1 x 50 mm; eluents: water / acetonitrile, 0.1% formic acid
Method in brief: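 Over 3 months, pure standards in mixtures of ~100 molecules were run by HPLC coupled to a quadrupole time-of-flight mass spectrometer in positive and negative ionization mode. The column was a Zorbax Extend-C18 (2.1 × 50 mm, 1.8 μm) at 100 μL/min, eluted with water and acetonitrile each holding 0.1% formic acid, with 40 μL dead and 900 μL dwell volumes. Retention time was determined from adduct peaks chosen by software and checked manually.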

| SMILES | RP-LC retention time [s] |
| --- | --- |
| Cc1cc(C)cc(NC(=O)C2CCN(S(=O)(=O)c3cc(-c4noc(C)n4)cs3)CC2)c1 | 953 |
| O=C(Nc1cnn(-c2ncncc2N2CCCC2)c1)c1ccc(C(F)(F)F)cc1 | 779 |
| CN(C1CCc2nn(CC3CC3)c(=O)n2CC1)S(=O)(=O)c1ccccc1Cl (stereo not drawn) | 796 |
| Cc1ccc(Oc2nccn3c(=O)n(CC(=O)Nc4ccc(C)c(Cl)c4)nc23)cc1 | 1010 |
| Cc1ccc(CN2CCN(C3CCN(C(=O)c4ccc(Br)o4)CC3)C(=O)C2=O)cc1 | 718 |
| CC(C)NC(=O)c1ccc(CN2CCN(Cc3ccc(F)cc3)C(=O)C2=O)cc1 | 668 |
| O=C(c1ccc2c(c1)OCO2)N1C[C@H]2C[C@H](C1)[C@H]1CCCC(=O)N1C2 | 637 |
| Cn1ncc2c(Nc3cccc(Cl)c3)nc(N3CCN(C4CCCCC4)CC3)nc21 | 751 |
| O=C(CCc1nnc2c3cc(-c4ccc(Cl)cc4)nn3ccn12)N1CCN(c2ccccn2)CC1 | 955 |
| CCOC(=O)N1CCN(C(=O)CSc2nnc(COc3ccc(Cl)cc3)o2)CC1 | 799 |
| Cc1cccc(C)c1NC(=O)Nc1ccc(S(N)(=O)=O)cc1 | 751 |
| COc1ccc2c(c1)C1(CCN(S(=O)(=O)c3ccc(Br)cc3)C1)C(=O)N2C (stereo not drawn) | 986 |
| COc1ccc(Cl)cc1NC(=O)Cn1nc(N2CCCC2)c2ccccc2c1=O | 1090 |
| Cc1ccc2cc(CCC(=O)NCCN3CCCCCC3)c(=O)[nH]c2c1 | 628 |
| O=C(NCC(c1ccsc1)N1CCCCCC1)C(=O)Nc1ccc2c(c1)OCCO2 (stereo not drawn) | 570 |
| O=C(NCC(=O)N1CCCc2ccccc21)c1ccoc1 | 708 |
| CCCNc1cc(N2CCC(CCC(=O)NCC(C)C)CC2)ncn1 | 642 |
| CN1CCN(C(=O)C(=O)Nc2c3c(nn2-c2ccc(Cl)cc2)CSC3)CC1 | 634 |
| O=C(Nc1ccccc1C(F)(F)F)c1csc(-c2ccc(N3CCCC3)nc2)n1 | 890 |
| C[C@H]1CN(C(=O)Nc2cccc(Cl)c2)C[C@@H]1c1nc(-c2cccnc2)no1 | 849 |

| SMILES | RP-LC retention time [s] |
| --- | --- |
| CN(Cc1nc2cc(C(=O)N3CCCC3)ccc2n1C)C(=O)Nc1ccc2c(c1)OCCO2 | 688 |
| COc1ccc(-c2cc(N3CCN(C(=O)Nc4ccc(OC)c(OC)c4)CC3)ncn2)cc1 | 620 |
| CCc1nc(-c2cc(S(=O)(=O)Nc3ccc(F)cc3F)c(C)s2)cs1 | 994 |
| Cc1cccc(CNC(=O)c2cc(C(C)C)n3nccc3n2)c1 | 1310 |
| O=C(Nc1ccc2c(c1)OCCO2)[C@@H]1COCC(=O)N1Cc1ccc(F)cc1 | 765 |
| Cc1ccc(C(CC(=O)N2CCN(c3ccccn3)CC2)N2Cc3ccccc3C2=O)cc1 (stereo not drawn) | 655 |
| CCOc1ccc(-c2noc(Cn3c(=O)n(CC4CCCO4)c(=O)c4ccccc43)n2)cc1 (stereo not drawn) | 1050 |
| Cc1cccc(-n2c(=O)c3c(cc(C)n3C)n(CC(=O)Nc3ccccc3)c2=O)c1 | 852 |
| O=C(CCCc1ccccc1)N1CCN(c2ccc(-n3cccn3)nn2)CC1 | 758 |
| C[C@H]1CN(C(=O)COc2ccc(F)cc2)C[C@@H]1c1nc(-c2ccncc2)no1 | 793 |
| O=C(NCc1cccc(F)c1)c1ccc(-c2ccsc2)nc1 | 871 |
| CCc1cccc2cc([C@@H](O)CNC(C)(C)C)oc12 | 737 |
| COC(=O)c1ccc(NC(=O)CN2CCc3[nH]c4c(F)c(Cl)ccc4c(=O)c3C2)cc1 | 630 |
| Cc1cc(OCC(=O)N[C@@H](Cc2ccccc2)C(=O)O)c2c3c(c(=O)oc2c1)CCC3 | 835 |
| Cn1cnc(S(=O)(=O)N2CCN(c3ccccn3)CC2)c1 | 536 |
| CC1=C(c2ccc(C)cc2)S(=O)(=O)N=C1N1CCCN(C(=O)c2ccc(C#N)cc2)CC1 | 835 |
| COc1ccc(CNC(=O)CN2C(=O)CC(c3cccs3)=Nc3ccccc32)cc1 | 863 |
| Cc1ccc(N2CCN(C(=O)CN3CCN(Cc4cccc(Cl)c4)C3=O)CC2)cc1 | 905 |
| COc1ccccc1N1CCN(C(=O)C2CCN(c3nc(NC(C)=O)ns3)CC2)CC1 | 641 |
| Cc1ccccc1CNC(=O)C1(C)CCCN(C(=O)NCc2ccco2)C1 (stereo not drawn) | 809 |

| SMILES | RP-LC retention time [s] |
| --- | --- |
| O=C(NCc1ccc(F)cc1F)c1csc(C(=O)NC2CCCC2)n1 | 895 |
| Oc1c(C(Nc2nccs2)c2ccc(F)cc2)ccc2cccnc12 (stereo not drawn) | 654 |
| O=C(Nc1ccccc1F)N1CCCC(Cn2c(C3CC3)nc3cccnc32)C1 (stereo not drawn) | 656 |
| Cc1cn2c(CCC(=O)NCCOc3ccc(F)cc3)csc2n1 | 566 |
| CC(CCc1ccccc1)NC(=O)c1ccc2c(c1)CCCN2S(C)(=O)=O (stereo not drawn) | 935 |
| O=C(CCNc1c(-c2ccccc2)nc2cnccn12)NCc1cccs1 | 662 |
| CCOc1ccc(C(=O)c2ccc(Cl)c(N)c2)cc1 | 935 |
| O=C(CCc1c(-c2ccc(Cl)cc2)nc2ccccn12)NCc1ccc2c(c1)OCO2 | 654 |
| CC(C)Cn1c(CC2CCN(C(=O)COc3ccccc3)C2)nc2cccnc21 (stereo not drawn) | 672 |
| O=C(c1cccs1)N1CCn2c(nnc2-c2ccccc2)C1 | 656 |
| Cc1nc(C)c(C(=O)N2CC(N(CC(C)C)C3CCN(C)CC3)C2)s1 | 567 |
| O=C(c1ccc([N+](=O)[O-])o1)N1CCN(C(=O)C2CC2c2cccs2)CC1 (stereo not drawn) | 752 |
| CCOC(=O)c1csc(NC(=O)c2ccc3c(c2)OCCO3)n1 | 782 |
| Cc1nn(-c2ccc(C(=O)NCc3cc(F)cc(F)c3)cn2)c(C)c1C | 918 |
| COc1ccccc1-c1noc(Cn2c(=O)n(-c3cccc(F)c3)c(=O)c3sccc32)n1 | 880 |
| O=S(=O)(c1ccc2c(c1)CCC2)N1CCc2nc(-c3ccc(F)cc3)ncc2C1 | 1220 |
| O=C(NCC1CCN(C(=O)c2cc3ccccc3o2)CC1)Nc1c(F)cccc1F | 729 |
| CCOC(=O)C1=C(C)NC(=O)NC1c1cn(-c2ccccc2)nc1-c1ccc(OC)cc1 (stereo not drawn) | 842 |

Further lines, results first:

| RP-LC retention time [s] | SMILES |
| --- | --- |
| 705 | COc1ccc(-c2nnc(CC(=O)NCC(C)C)o2)cc1 |
| 814 | COc1ccc(CNC(=O)N2CCC(COCc3ccccc3)CC2)cc1OC |
| 680 | CCCn1c2ccccc2c2cnn(CC(=O)NCCN3CCCCC3C)c(=O)c21 (stereo not drawn) |
| 986 | CCN(c1cccc(C)c1)S(=O)(=O)c1ccc2c(c1)N(C(C)=O)CCCS2 |
| 641 | Cc1cccc(NC(=O)Cn2c(C)nc(C)c(C)c2=O)c1C |
| 1120 | CC1Oc2ccccc2OC1C(=O)Nc1sc2c(c1C#N)CCCC2 (stereo not drawn) |
| 1120 | Cc1nc(-c2cc(S(=O)(=O)Nc3ccccc3Cl)c(C)s2)sc1C |
| 983 | CCC(C)c1ccc(NC(=O)C2CCN(C(=O)C(C)(C)C)CC2)cc1 (stereo not drawn) |
| 698 | CNC(=O)c1noc([C@@H]2CC(F)(F)CN2C(=O)C2CC=CC2)n1 |
| 590 | CN(C)CCn1cc(C(=O)NCc2ccco2)ccc1=O |
| 678 | CC(C)C(=O)N1CCc2cc(C(=O)N(C)C)ccc21 |
| 604 | O=C(NCCCN1CCCC1)C1c2ccccc2CC(=O)N1Cc1ccccc1 (stereo not drawn) |
| 809 | Cc1cccc(C(=O)Nc2ccc3c(c2)Sc2ncccc2C(=O)N3C)c1 |
| 682 | COCCNC(=O)C1CCc2sc(C(=O)N3CCCCCC3)cc2C1 (stereo not drawn) |
| 700 | O=C([C@@H]1C[C@H](F)CN1C(=O)c1cc(F)ccc1F)N1CCCCC1 |
| 911 | Cc1nc(Cn2cccc2C(=O)Nc2cccc(Cl)c2)no1 |
| 599 | COc1ccc(NC(=O)CN2CCc3c(c(=O)c4cc(C)ccc4n3C)C2)cc1 |
| 1350 | Cc1ccc(NC(=O)C2CCCN(c3nc4ccccc4nc3C(F)(F)F)C2)c(Cl)c1 (stereo not drawn) |
| 899 | Cc1cccc(NC(=O)Cn2nc3c(Oc4cccc(Cl)c4)nccn3c2=O)c1 |
| 674 | NC1=N[C@@]2(c3cc(NC(=O)c4ccc(F)cn4)ccc3F)COC[C@H]2CS1 |
| 714 | Cc1nnc(N2CCCC(C(=O)NCCCOC(C)C)C2)c2nn(-c3ccc(Cl)cc3)c(C)c12 (stereo not drawn) |
| 896 | CC1CCCCN1S(=O)(=O)c1cc(-c2nnc(C3CC3)o2)co1 (stereo not drawn) |
| 906 | CCOc1ccc(NC(=O)CSc2ccc(S(=O)(=O)c3ccccc3)nn2)cc1 |
| 612 | Cc1cccc(NC(=O)Nc2cnn(-c3ncncc3N3CCOCC3)c2)c1C |
| 848 | Cc1ccc(C)c(NS(=O)(=O)c2cc3n(c2)CCN(CC(C)C)C3=O)c1 |
| 577 | O=C(NCCN1CCN(C(=O)CSc2nc3ccccc3s2)CC1)c1cccs1 |
| 967 | COc1ccccc1CNS(=O)(=O)c1ccc(F)c(C(=O)Nc2cc(C)ccc2C)c1 |
| 568 | O=C(NCc1ccco1)C(=O)NCC(c1cccnc1)N1CCOCC1 (stereo not drawn) |
| 809 | CCc1c(C(=O)O)nnn1-c1ccc(C)c(Cl)c1 |
| 849 | O=C(Nc1cccc(F)c1)[C@@H]1OCC(=O)N(C2CC2)[C@H]1c1ccccc1 |
